Values of other authors in patent US20110159054A1, “NANOPARTICULATE BICALUTAMIDE FORMULATIONS” (Elan Pharma International Ltd., priority 2004, published 2011).

Conditions: 37° C., practically insoluble

solubility in water: 5 mg per 1000 mL
SMILES: CC(O)(CS(=O)(=O)c1ccc(F)cc1)C(=O)Nc1ccc(C#N)c(C(F)(F)F)c1 (racemic) [Bicalutamide]
